For experiment [1], the target named is T1, interaction between the integrin LFA-1 and its adhesion partner ICAM-1 (Homo sapiens, UniProt P20701).
T1 construct: Recombinant LFA-1 (100 μL of 0.7 μg/ml mL, ICOS Corporation) in D-PBS; purchased ICOS Corporation
The experiment in a line: ICAM-1/LFA-1 Biochemical Interaction Assay. Particulars: 4 μM compound; recombinant LFA-1, biotinylated ICAM-1/Ig. Type of experiment: binding. On the procedure:
Compounds that antagonize the interaction between ICAM-1 and LFA-1 can be identified, and their activities quantitated, using both biochemical and cell-based adhesion assays. A primary biochemical assay measures the ability of the compound in question to block the interaction between the integrin LFA-1 and its adhesion partner ICAM-1, as described below:
ICAM-1/LFA-1 Biochemical Interaction Assay
In the biochemical assay, 100 μL of anti-LFA-1 antibody (ICOS Corporation) at a concentration of 5 μg/ml mL in Dulbecco's phosphate-buffered saaline (D-PBS) is used to coat wells of a 96-well microtiter plate overnight at 4° C. The wells are were then washed twice with wash buffer (D-PBS w/o Ca^++ or Mg^++, 0.05% Tween 20) and blocked by addition of 200 μL of D-PBS, 5% fish skin gelatin. Recombinant LFA-1 (100 μL of 0.7 μg/ml mL, ICOS Corporation) in D-PBS is was then added to each well. Incubation continues continued for 1 hour at room temperature and the wells are were washed twice with wash buffer. Serial dilutions of compounds being assayed as ICAM-1/LFA-1 antagonists, were prepared as 10 mM stock solutions in dimethyl sulfoxide (DMSO), are were diluted in D-PBS, 2 mM MgCl2, 1% fish skin gelatin and 50 μL of each dilution was added to duplicate wells. This is was followed by the addition of 50 μL of 0.8 μg/ml mL biotinylated recombinant ICAM-1/Ig (ICOS Corporation) to the wells and the plates are were incubated at room temperature for 1 hour. The wells are were then washed twice with wash buffer and 100 μL of Europium-labeled Streptavidin (Wallac Oy) diluted 1:100 in Delfia assay buffer (Wallac Oy), are was then added to the wells. Incubation proceeds proceeded for 1 hour at room temperature. The wells are were washed eight times with wash buffer and 100 μL of enhancement solution (Wallac Oy, cat. No. 1244-105) are was added to each well. Incubation proceeds proceeded for 5 minutes with constant mixing. Time-resolved fluorimetry measurements are were made using the a Victor 1420 Multilabel Counter (Wallac Oy) and the percent inhibition of each candidate compound is was calculated using the following equation: [formula] where “background” refers to wells that are were not coated with anti-LFA-1 antibody.

Experiment [2] relates to adherence of JY-8 cells (expressing LFA-1) to immobilized ICAM-1. The experiment is described as follows: ICAM-1/JY-8 Cell Adhesion Assay. Type of experiment: cell-based, human. Here is the method: ICAM-1/JT-8 Cell Adhesion Assay
For measurment measurement of inhibotory inhibitory activity in the cell-based adhesion assay, 96-well microtiter plates are were coated with 70 μL of recombinat recombinant ICAM-1/Ig (ICOS Corporation) at a concentration of 5 μg/mL in D-PBS w/o without Ca^++ or Mg++ or Mg^++ overnight at 4° C. The wells are were then washed twice with D-PBS and blocked by addition of 200 μL of D-PBS, 5% fish skin gelatin by incubation for 1 hour at room temperature. […] The percent inhibition of a candidate compound at a given concentration is was calculated using the following equation: [formula] and these concentration/inhibition data are were used to generate does response curves, from which IC50 values are were derived.

Where [3] appears, read: Homo sapiens, JY-8, JY-8 cells on immobilized ICAM-1/Ig.
The mark [4] stands for this setting: JY-8 cells on immobilized ICAM-1/Ig.

From USRE39197E1, “Cell adhesion-inhibiting antiinflammatory and immune-suppressive compounds” (Abbott Laboratories, priority 1998, dated 2006) come the findings set out here.

As a reminder, the inhibition is the percentage by which the read-out fell short of the control. As a reminder, the IC50 is the point on the concentration scale where inhibition reaches its midpoint. A low value points to greater potency.

T1 sequence (P20701 26-1170): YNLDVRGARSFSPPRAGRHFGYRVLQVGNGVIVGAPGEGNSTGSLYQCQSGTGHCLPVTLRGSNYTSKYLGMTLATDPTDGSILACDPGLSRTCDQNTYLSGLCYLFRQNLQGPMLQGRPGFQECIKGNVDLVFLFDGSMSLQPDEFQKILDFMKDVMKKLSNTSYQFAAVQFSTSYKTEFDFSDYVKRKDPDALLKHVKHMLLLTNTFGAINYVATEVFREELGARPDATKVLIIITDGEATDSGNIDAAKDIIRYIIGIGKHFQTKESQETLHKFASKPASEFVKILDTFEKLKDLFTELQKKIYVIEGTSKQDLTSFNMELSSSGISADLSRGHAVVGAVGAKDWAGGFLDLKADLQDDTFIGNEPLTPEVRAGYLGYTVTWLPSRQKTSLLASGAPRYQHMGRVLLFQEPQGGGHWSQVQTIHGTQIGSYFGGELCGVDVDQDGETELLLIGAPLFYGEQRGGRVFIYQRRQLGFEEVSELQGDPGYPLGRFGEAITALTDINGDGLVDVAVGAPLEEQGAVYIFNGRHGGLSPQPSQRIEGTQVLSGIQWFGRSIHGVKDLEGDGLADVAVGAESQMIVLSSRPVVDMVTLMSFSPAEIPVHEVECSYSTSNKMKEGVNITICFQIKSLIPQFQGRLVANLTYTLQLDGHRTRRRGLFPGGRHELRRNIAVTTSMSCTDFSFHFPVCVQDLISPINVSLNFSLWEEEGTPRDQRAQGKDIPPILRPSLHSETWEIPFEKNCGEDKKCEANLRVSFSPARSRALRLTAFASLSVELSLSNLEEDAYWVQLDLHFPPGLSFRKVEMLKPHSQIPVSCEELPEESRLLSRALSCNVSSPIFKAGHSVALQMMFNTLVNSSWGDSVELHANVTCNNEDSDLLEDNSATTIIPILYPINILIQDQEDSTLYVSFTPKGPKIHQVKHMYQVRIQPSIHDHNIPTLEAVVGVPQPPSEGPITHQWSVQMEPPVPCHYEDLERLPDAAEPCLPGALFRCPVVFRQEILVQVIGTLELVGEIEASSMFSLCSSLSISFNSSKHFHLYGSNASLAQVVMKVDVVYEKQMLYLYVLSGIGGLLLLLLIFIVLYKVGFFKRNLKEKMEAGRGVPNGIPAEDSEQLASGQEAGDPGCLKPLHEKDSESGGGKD
T1 sequence (P05107 23-769 partner): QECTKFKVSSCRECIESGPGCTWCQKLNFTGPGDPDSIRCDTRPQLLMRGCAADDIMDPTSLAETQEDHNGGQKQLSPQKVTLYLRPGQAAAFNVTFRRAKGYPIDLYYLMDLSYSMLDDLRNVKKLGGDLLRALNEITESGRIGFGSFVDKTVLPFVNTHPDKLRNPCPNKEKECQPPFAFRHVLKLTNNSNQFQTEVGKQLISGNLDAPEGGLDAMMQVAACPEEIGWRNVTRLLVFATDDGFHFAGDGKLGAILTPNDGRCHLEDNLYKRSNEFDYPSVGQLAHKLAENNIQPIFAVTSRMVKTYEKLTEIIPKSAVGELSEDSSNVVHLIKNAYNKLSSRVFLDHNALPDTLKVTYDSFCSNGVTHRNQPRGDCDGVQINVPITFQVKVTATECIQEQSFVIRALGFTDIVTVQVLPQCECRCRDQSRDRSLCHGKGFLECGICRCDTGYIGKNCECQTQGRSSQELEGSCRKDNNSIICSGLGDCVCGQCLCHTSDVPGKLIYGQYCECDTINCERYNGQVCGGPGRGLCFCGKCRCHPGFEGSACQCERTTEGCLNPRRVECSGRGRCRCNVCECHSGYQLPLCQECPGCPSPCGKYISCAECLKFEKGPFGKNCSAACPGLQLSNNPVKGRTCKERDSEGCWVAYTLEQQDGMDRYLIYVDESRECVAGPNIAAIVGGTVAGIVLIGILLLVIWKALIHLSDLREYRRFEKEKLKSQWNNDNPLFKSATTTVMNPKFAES

As for `O=C(/C=C/c1ccc(Sc2ccc(Cl)cc2Cl)c(Cl)c1)N(CCO)CCO` [Example 5, (2,4-Dichlorophenyl)[2-chloro-4-(E-((bis-(2-hydroxyethyl)amino)carbonyl)ethenyl)phenyl]sulfide], the inhibition at 4 µM in experiment [1] is 73%. Further, the IC50 in experiment [2] (setting [3]) was 2900 nM.
On the same counts, the results for `Cc1ccccc1Sc1ccc(/C=C/C(=O)N2CCN(c3ccccc3)CC2)cc1C(F)(F)F` [Example 29, (2-Methylphenyl)[2-trifluoromethyl-4-(E-((4-phenylpiperazin-1-yl)carbonyl)ethenyl)phenyl]sulfide] are 84% and 160 nM.
With `CCN(CC)C(=O)CN1CCN(C(=O)/C=C/c2ccc(Sc3ccc(Cl)cc3Cl)c([N+](=O)[O-])c2)CC1` [Example 40, (2,4-Dichlorophenyl)[2-nitro-4-(E-((4-(diethylaminocarbonylmethyl)piperazin-1-yl)carbonyl)ethenyl)phenyl]sulfide], the inhibition at 4 µM in experiment [1] came to 90%. The IC50 in experiment [2] (setting [3]) was 280 nM.
Turning to `O=C(/C=C/c1ccc(Sc2ccccc2CO)c(Cl)c1)N1CCOCC1` [Example 11, (2-(Hydroxymethyl)phenyl)[2-chloro-4-(E-((1-morpholinyl)carbonyl)ethenyl)phenyl]sulfide], in experiment [1], the “% inhibition @ 4 μM” value is 87%. For the same compound, the IC50 in experiment [2] (setting [4]) stood at 260 nM.
With `CCOC(=O)CN(C)Cc1ccccc1Sc1ccc(/C=C/C(=O)N2CCOCC2)cc1Cl` [Example 56, (2-((N-Ethoxycarbonylmethyl-N-methyl)aminomethyl)phenyl)[2-chloro-4-(E-((1-morpholinyl)carbonyl)ethenyl)phenyl]sulfide], the “% inhibition @ 4 μM” value in experiment [1] came out at 83%. Moreover, inhibition in experiment [2] (setting [4]) was half-maximal at 510 nM (IC50).
For the compound `CS(=O)(=O)N1CCN(C(=O)/C=C/c2ccc(Sc3ccc(Cl)cc3Cl)c([N+](=O)[O-])c2)CC1` [Example 39, (2,4-Dichlorophenyl)[2-nitro-4-(E-((4-(methanesulfonyl)piperazin-1-yl)carbonyl)ethenyl)phenyl]sulfide], the inhibition at 4 µM in experiment [1] stood at 86%. Besides, in experiment [2] (setting [3]), the midpoint of inhibition, the IC50, lay at 250 nM.
For `O=C(/C=C/c1ccc(Sc2ccccc2Br)c(Cl)c1)N1CCCCC1` [Example 19], the “% inhibition @ 4 μM” value in experiment [1] is reported as 93%. The compound also returned an IC50 in experiment [2] (setting [4]) of 450 nM.
With `CC(C)(C)OC(=O)N1CCN(C(=O)/C=C/c2ccc(Sc3ccc(Cl)cc3Cl)c([N+](=O)[O-])c2)CC1` [Example 37, (2,4-Dichlorophenyl)[2-nitro-4-(E-((4-(tert-butoxycarbonyl)piperazin-1-yl)carbonyl)ethenyl)phenyl]sulfide], the inhibition at 4 µM in experiment [1] amounted to 91%. Also, the IC50 in experiment [2] (setting [3]) stood at 140 nM.
Turning to `O=C(/C=C/c1ccc(Sc2ccccc2Br)c(Cl)c1)N1CCC(n2c(=O)[nH]c3ccccc32)CC1` [Example 24], the “% inhibition @ 4 μM” value in experiment [1] came out at 80%. The same compound returned an IC50 in experiment [2] (setting [4]) of 8000 nM.
Take `O=C(/C=C/c1ccc(Sc2ccc(Cl)cc2Cl)c(Cl)c1)NCCCN1CCCC1=O` [Example 6, (2,4-Dichlorophenyl)[2-chloro-4-(E-((3-(2-oxopyrrolidin-1-yl)propylamino)carbonyl)ethenyl)phenyl]sulfide]: the inhibition at 4 µM in experiment [1] worked out at 85%. This compound yielded an IC50 in experiment [2] (setting [3]) of 660 nM.
In the case of `CN(C)N=Cc1ccccc1Sc1ccc(/C=C/C(=O)N2CCOCC2)cc1Cl` [Example 61, (2-Formylphenyl)[2-chloro-4-(E-((1-morpholinyl)carbonyl)ethenyl)phenyl]sulfide, N,N-dimethyl hydrazone], in experiment [1], the “% inhibition @ 4 μM” value was 88%. Moreover, the IC50 in experiment [2] (setting [4]) was determined as 540 nM.
Taken in the same sequence, the figures for `CC(C)NC(=O)CN1CCN(Cc2ccccc2Sc2ccc(/C=C/C(=O)N3CCOCC3)cc2Cl)CC1` [Example 55, (2-(4-(iso-Propylaminocarbonylmethyl)piperazin-1-ylmethyl)phenyl)[2-chloro-4-(E-((1-morpholinyl)carbonyl)ethenyl)phenyl]sulfide] were 82% and 100 nM.
Regarding `O=C(/C=C/c1ccccc1Sc1ccc(Cl)cc1Cl)NCCCCCCO` [Example 1, (2,4-Dichlorophenyl)[2-(E-((6-hydroxyhexylamino)carbonyl)ethenyl)phenyl]sulfide], the inhibition at 4 µM in experiment [1] is 75%. Further, in experiment [2] (setting [3]), inhibition was half-maximal at 2100 nM (IC50).
On to “(2-Chlorophenyl)[2-chloro-4-(E-((4-acetylpiperazin-1-yl)carbonyl))2-propenyl)phenyl]sulfide [Example 52]”, for which the “% inhibition @ 4 μM” value in experiment [1] came to 86%. In addition, inhibition in experiment [2] (setting [4]) was half-maximal at 420 nM (IC50).
As for `O=Cc1ccccc1Sc1ccc(/C=C/C(=O)N2CCOCC2)cc1Cl` [Example 57, (2-Formylphenyl)[2-chloro-4-(E-((1-morpholinyl)carbonyl)ethenyl)phenyl]sulfide], in experiment [1], the “% inhibition @ 4 μM” value was 90%. Moreover, the IC50 in experiment [2] (setting [4]) is 220 nM.
`O=C(/C=C/c1ccc(Sc2ccccc2Br)c(Cl)c1)N1CCc2ccccc2C1` [Example 25, (2-Bromophenyl)[2-chloro-4-(E-((2-tetrahydroisoquinolinyl)carbonyl)ethenyl)phenyl]sulfide]: the “% inhibition @ 4 μM” value in experiment [1] was found to be 82%. This compound also registered an IC50 in experiment [2] (setting [4]) of 11000 nM.
In the case of `O=C(O)C1CCN(C(=O)/C=C/c2ccc(Sc3ccc(Cl)cc3Cl)c(Cl)c2)CC1` [Example 21, (2,4-Dichlorophenyl)[2-chloro-4-(E-((4-carboxypiperidin-1-yl)carbonyl)ethenyl)phenyl]sulfide], the inhibition at 4 µM in experiment [1] is 80%. This compound also had an IC50 in experiment [2] (setting [3]) of 520 nM.
In the case of `O=C(O)C1CCCN(C(=O)/C=C/c2ccc(Sc3ccc(Cl)cc3Cl)c(Cl)c2)C1` (centres unmarked) [Example 20, (2,4-Dichlorophenyl)[2-chloro-4-(E-((3-carboxypiperidin-1-yl)carbonyl)ethenyl)phenyl]sulfide], in experiment [1], the inhibition at 4 µM was found to be 82%. Also, in experiment [2] (setting [3]), the IC50 stood at 3300 nM.
On the same counts, the results for `O=C(/C=C/c1ccc(Sc2ccc(Cl)cc2Cl)c(Cl)c1)NCCO` [Example 3, (2,4-Dichlorophenyl)[2-chloro-4-(E-((2-hydroxyethylamino)carbonyl)ethenyl)phenyl]sulfide] are 75% and 2500 nM.
Take `CC(=O)N1CCN(C(=O)/C=C/c2ccc(Sc3ccccc3CO)c([N+](=O)[O-])c2)CC1` [Example 48, (2-Hydroxymethylphenyl)[2-nitro-4-(E-((4-acetylpiperazin-1-yl)carbonyl)ethenyl)phenyl]sulfide]: in experiment [1], the inhibition at 4 µM was 89%. The compound also yielded an IC50 in experiment [2] (setting [3]) of 200 nM.
As for `Cc1ccccc1Sc1ccc(/C=C/C(=O)NCCN2CCOCC2)cc1C(F)(F)F` [Example 28, (2-Methylphenyl)[2-trifluoromethyl-4-(E-((2-(1-morpholinyl)ethylamino)carbonyl)ethenyl)phenyl]sulfide], the “% inhibition @ 4 μM” value in experiment [1] worked out at 87%. Besides, in experiment [2] (setting [4]), the IC50 came out at 370 nM.
For the compound `CN1CCN(C(=O)/C=C/c2ccc(Sc3ccc(Cl)cc3Cl)c(Cl)c2)CC1` [Example 8, (2,4-Dichlorophenyl)[2-chloro-4-(E-((4-methylpiperazin-1-yl)carbonyl)ethenyl)phenyl]sulfide], the inhibition at 4 µM in experiment [1] turned out to be 74%. Also, in experiment [2] (setting [3]), half-maximal inhibition (IC50) was put at 2900 nM.
In the case of `O=C(/C=C/c1ccc(Sc2ccc(Cl)cc2Cl)c(Cl)c1)N1CCOCC1` [Example 7, (2,4-Dichlorophenyl)[2-chloro-4-(E-((1-morpholinyl)carbonyl)ethenyl)phenyl]sulfide], in experiment [1], the “% inhibition @ 4 μM” value worked out at 87%. Besides, the IC50 in experiment [2] (setting [4]) was determined as 1200 nM.
Take `CC(C)(C)OC(=O)CN1CCN(C(=O)/C=C/c2ccc(Sc3ccc(Cl)cc3Cl)c([N+](=O)[O-])c2)CC1` [Example 42, (2,4-Dichlorophenyl)[2-nitro-4-(E-((4-(tert-butoxycarbonylmethyl)piperazin-1-yl)carbonyl)ethenyl)phenyl]sulfide]: the inhibition at 4 µM in experiment [1] came out at 56%. This compound also yielded an IC50 in experiment [2] (setting [3]) of 520 nM.
With `O=C(/C=C/c1ccc(Sc2ccc(Cl)cc2Cl)c(Cl)c1)N1CCN(CCO)CC1` [Example 13], the “% inhibition @ 4 μM” value in experiment [1] was found to be 79%. This compound yielded an IC50 in experiment [2] (setting [4]) of 1100 nM.
